Experimental findings from ChEMBL document CHEMBL1131975, “Synthesis and antitumor activity of bithienyl-pyrimidine derivatives with electrostatic binding side chains” (Bioorg Med Chem Lett, 1999) are described below.

In one experiment the test system is COLO 205. Briefly: In vitro cytotoxicity against human colon carcinoma (Colon-205) cells. The experiment is classed as functional, cell-based.
The subject of the next experiment is HEp-2. Briefly: In vitro cytotoxicity against human larynx carcinoma (Hep-2). The experiment is classed as functional, cell-based.
For a further experiment, the system named is Nucleic Acid. Briefly: Evaluated for binding affinity with DNA at a pH of 8 by Fluorimetric method. It is filed as nucleic-acid assay.
The subject of another experiment is HeLa. Briefly: In vitro cytotoxicity against human cervical carcinoma (Hela) cells at dose 50 ug/mL. It is filed as functional, cell-based.
The test system of a further experiment is KB. As to the kind of experiment: In vitro cytotoxicity against human oral epidermoid carcinoma (KB) cells. The experiment is classed as functional, cell-based.

≈ marks a conversion by molar mass, not a printed value. A value given as a limit tells only on which side of the number the result lay.

In general, IC50 refers to the midpoint of a concentration-inhibition curve. A higher IC50 goes with a need for much substance.

Regarding `CN(C)CCSc1nccc(-c2ccc(-c3cccs3)s2)n1`, the IC50 in the experiment on COLO 205 amounted to 30 µg/mL (≈ 86.3 µM); in the experiment with HEp-2, 50 µg/mL (≈ 144 µM); in the experiment on HeLa, 25 µg/mL (≈ 71.9 µM); with KB, 50 µg/mL (≈ 144 µM). In addition, the K ass with Nucleic Acid amounted to 6.5e+06 M⁻¹.
In the case of `CN(C)CCSc1nccc(-c2cccs2)n1`, the IC50 with COLO 205, in the experiment on HEp-2, in the experiment on HeLa and in the experiment with KB was more than 50 µg/mL each time.
For the compound `CN(C)CCOc1nccc(-c2cccs2)n1`, the IC50 with COLO 205, with HEp-2, with HeLa and in the experiment on KB was more than 50 µg/mL throughout.
For the compound `CN(C)CCCOc1nccc(-c2ccc(-c3cccs3)s2)n1`, the IC50 amounted to 7 µg/mL (≈ 20.3 µM) with COLO 205, 11 µg/mL (≈ 31.8 µM) with HEp-2, 7 µg/mL (≈ 20.3 µM) in the experiment on HeLa and 5 µg/mL (≈ 14.5 µM) in the experiment with KB. This compound also registered a K ass in the experiment on Nucleic Acid of 3e+07 M⁻¹.
With `CN(C)CCCOc1nccc(-c2cccs2)n1`, the IC50 in the experiment with COLO 205, with HEp-2, in the experiment with HeLa and in the experiment on KB was more than 50 µg/mL in each case.
On to `CN(C)CCOc1nccc(-c2ccc(-c3cccs3)s2)n1`, for which the IC50 turned out to be 12 µg/mL (≈ 36.2 µM) with COLO 205, 16 µg/mL (≈ 48.3 µM) in the experiment with HEp-2, 15 µg/mL (≈ 45.3 µM) in the experiment with HeLa and 17 µg/mL (≈ 51.3 µM) in the experiment on KB. The K ass with Nucleic Acid worked out at 2.1e+07 M⁻¹.
